How the values were obtained:
HCT-116 = experiment: cells; conditions: Homo sapiens, HCT-116, 24 h
Description: Cytotoxicity against human HCT116 cells after 24 hrs by MTT assay

MCF7 = experiment: Cytotoxicity against human MCF7 cells after 24 hrs by MTT assay; assay type: functional, cell-based; conditions: MCF7, 24 h
PC-3 = experiment: cells; conditions: Homo sapiens, PC-3, 24 h
Description: Cytotoxicity against human PC3 cells after 24 hrs by MTT assay

HeLa = experiment: Cytotoxicity against human HeLa cells; assay type: functional, cell-based
[1] = target: T1, Serine/threonine-protein kinase mTOR (Homo sapiens, UniProt P42345); experiment: Inhibition of mTOR (unknown origin) incubated for 1 hr by ELISA relative to control; conditions: concentration not given here
BJ = experiment: Cytotoxicity against human BJ cells; assay type: cell-based
[2] = Cytotoxicity against human WPE1-NA22 cells; assay type: cell-based
[3] = target: T1, Serine/threonine-protein kinase mTOR; experiment: Inhibition of mTOR (unknown origin) incubated for 1 hr by ELISA
[4] = target: Vascular endothelial growth factor receptor 2 (Homo sapiens, UniProt P35968)
Sequence of Vascular endothelial growth factor receptor 2 (P35968 whole entry): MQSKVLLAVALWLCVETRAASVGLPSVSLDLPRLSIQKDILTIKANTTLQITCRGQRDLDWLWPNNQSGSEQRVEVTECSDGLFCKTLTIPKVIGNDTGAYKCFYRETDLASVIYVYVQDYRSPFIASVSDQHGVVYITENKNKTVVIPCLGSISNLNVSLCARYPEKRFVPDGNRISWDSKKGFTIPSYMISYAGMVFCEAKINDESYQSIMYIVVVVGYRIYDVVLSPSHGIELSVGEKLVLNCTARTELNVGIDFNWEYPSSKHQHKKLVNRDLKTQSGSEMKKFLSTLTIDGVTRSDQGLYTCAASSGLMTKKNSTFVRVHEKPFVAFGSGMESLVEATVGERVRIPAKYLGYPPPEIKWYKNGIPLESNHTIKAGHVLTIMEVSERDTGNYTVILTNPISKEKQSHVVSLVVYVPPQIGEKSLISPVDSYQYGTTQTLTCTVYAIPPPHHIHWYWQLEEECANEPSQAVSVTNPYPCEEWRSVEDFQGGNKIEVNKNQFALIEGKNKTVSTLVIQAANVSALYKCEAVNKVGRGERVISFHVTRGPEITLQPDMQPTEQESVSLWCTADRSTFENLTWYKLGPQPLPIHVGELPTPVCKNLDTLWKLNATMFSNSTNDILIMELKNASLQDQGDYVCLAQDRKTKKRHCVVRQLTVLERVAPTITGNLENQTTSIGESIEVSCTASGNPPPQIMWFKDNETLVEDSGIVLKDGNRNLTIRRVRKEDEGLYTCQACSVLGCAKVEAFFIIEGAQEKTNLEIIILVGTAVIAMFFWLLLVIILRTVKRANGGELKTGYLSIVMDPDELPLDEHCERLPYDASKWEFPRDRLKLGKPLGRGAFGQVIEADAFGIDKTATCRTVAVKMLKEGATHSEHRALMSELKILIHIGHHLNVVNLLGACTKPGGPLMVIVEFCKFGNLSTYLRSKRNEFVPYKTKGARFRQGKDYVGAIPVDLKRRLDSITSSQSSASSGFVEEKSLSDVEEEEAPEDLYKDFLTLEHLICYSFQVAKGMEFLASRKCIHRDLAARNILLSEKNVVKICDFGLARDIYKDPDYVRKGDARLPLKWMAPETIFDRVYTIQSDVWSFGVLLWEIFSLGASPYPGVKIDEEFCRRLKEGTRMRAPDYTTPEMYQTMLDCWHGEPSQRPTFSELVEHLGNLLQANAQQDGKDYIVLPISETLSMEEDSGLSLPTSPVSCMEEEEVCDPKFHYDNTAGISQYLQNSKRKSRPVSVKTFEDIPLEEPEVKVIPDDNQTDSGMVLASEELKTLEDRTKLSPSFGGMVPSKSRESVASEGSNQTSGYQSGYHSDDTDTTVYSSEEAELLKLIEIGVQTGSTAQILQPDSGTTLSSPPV
Description: Inhibition of human VEGFR-2 incubated for 2.5 hrs by ELISA

MRC5 = experiment: Cytotoxicity against human MRC5 cells; assay type: cell-based

| SMILES | IC50 (HCT-116) | IC50 (MCF7) | IC50 (PC-3) | IC50 (HeLa) | inhibition [1] | IC50 (BJ) | IC50 [2] | IC50 [3] | IC50 [4] | IC50 (MRC5) |
| --- | --- | --- | --- | --- | --- | --- | --- | --- | --- | --- |
| CCOC(=O)C1=C(CSC(=S)N2CCN(c3ccccc3OCC)CC2)N(C)C(=O)NC1c1ccccc1 (stereo not given) | 67.6 µM | 53.8 µM | 72.3 µM |  |  |  |  |  |  |  |
| CO[C@H]1C[C@@H]2CC[C@@H](C)[C@@](O)(O2)C(=O)C(=O)N2CCCC[C@H]2C(=O)O[C@H]([C@H](C)C[C@@H]2CC[C@@H](O)[C@H](OC)C2)CC(=O)[C@H](C)/C=C(\C)[C@@H](O)[C@@H](OC)C(=O)[C@H](C)C[C@H](C)/C=C/C=C/C=C/1C [SIROLIMUS] |  |  |  | 0.77 µM | 94.9% |  |  |  |  |  |
| CCOC(=O)C1=C(CSc2nc3cc([N+](=O)[O-])ccc3[nH]2)N(C)C(=O)NC1c1ccccc1 (stereo not given) | 7.29 µM | 9.39 µM | 9.18 µM | 1.4 µM | 84.6% | 37.5 µM | 21.7 µM | 0.72 µM | 1.2 µM | 44.2 µM |
